For orientation: IC50 means the concentration that inhibits the measured activity by half. A higher IC50 goes with lower potency.

Where “and” joins values, the source holds several entries; their conditions need not be identical. Equal entries are not always repeated. Where only a bound is given, the exact number is not on record here.

Chain of Glycogen synthase kinase-3 alpha (P49840 whole entry): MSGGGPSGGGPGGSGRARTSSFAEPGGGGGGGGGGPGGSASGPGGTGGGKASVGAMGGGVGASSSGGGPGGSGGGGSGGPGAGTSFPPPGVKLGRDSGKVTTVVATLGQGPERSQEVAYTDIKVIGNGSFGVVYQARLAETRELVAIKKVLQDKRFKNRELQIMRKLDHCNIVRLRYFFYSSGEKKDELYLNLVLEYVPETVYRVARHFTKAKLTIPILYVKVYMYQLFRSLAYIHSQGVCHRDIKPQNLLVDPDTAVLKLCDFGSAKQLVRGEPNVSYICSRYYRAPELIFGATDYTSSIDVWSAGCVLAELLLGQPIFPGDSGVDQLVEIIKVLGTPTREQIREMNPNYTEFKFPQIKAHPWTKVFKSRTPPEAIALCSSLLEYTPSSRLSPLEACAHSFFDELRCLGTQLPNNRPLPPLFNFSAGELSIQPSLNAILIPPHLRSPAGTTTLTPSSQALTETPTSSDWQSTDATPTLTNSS
Chain of Glycogen synthase kinase-3 beta (P49841 whole entry): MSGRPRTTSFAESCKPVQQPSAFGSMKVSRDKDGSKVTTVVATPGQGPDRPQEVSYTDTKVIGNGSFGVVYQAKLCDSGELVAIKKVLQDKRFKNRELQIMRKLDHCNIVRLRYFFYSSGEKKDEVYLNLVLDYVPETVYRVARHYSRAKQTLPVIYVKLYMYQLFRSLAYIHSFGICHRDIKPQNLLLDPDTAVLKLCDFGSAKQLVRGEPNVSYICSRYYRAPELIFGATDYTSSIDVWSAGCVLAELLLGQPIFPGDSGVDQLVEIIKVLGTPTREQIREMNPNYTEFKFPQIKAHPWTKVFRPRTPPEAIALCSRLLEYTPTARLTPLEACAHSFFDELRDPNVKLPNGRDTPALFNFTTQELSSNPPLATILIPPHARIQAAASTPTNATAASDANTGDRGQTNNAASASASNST

One experiment has as its target Glycogen synthase kinase-3 beta (Homo sapiens, UniProt P49841). In words: TR-FRET Assay. Here is the method: (§1) The assay was performed in a white, 384 well, low volume, flat bottom plate (Grenier). […] The kinase activity was quenched with 2 μL of 250 mM EDTA. A 10 μL volume of 40 nM Strepavidin-d2, 2 nM Tb2+-pSer641 antibody in TR-FRET Detection Buffer (Invitrogen) was then added.
A general note: In TR-FRET formats the signal depends on donor and acceptor labels being close together.
For the compound `CC[C@]1(c2cccc(Nc3ncccn3)c2)C2=CN=NC2NC2=C1C(=O)CC(C)(C)C2` (some centres undefined) [US20250313563, Compound 945943], the IC50 was 100 to 1000 nM.
`CCCn1nccc1-c1cccc([C@]2(CC)C3=CN=NC3NC3=C2C(=O)CC(C)(C)C3)c1` (some centres undefined) [US20250313563, Compound 946093] registered an IC50 of 100 to 1000 nM.
The compound `CC[C@@]1(c2cccc(-c3cc(C)nn3C)c2)C2=CN=NC2NC2=C1C(=O)CC(C)(C)C2` (some centres undefined) [US20250313563, Compound 946097] showed an IC50 of 100 to 1000 nM.
The same measure, in the same setting: for `CCN(c1cccc([C@@]2(CC)C3=CN=NC3NC3=C2C(=O)CC(C)(C)C3)c1)c1ncccn1` (some centres undefined) [US20250313563, Compound 947333] the value was 100 to 1000 nM; for `CC[C@]1(c2cccc(-c3cc(C)ncc3C)c2)C2=C(CC(C)(C)CC2=O)NC2N=NC(C(F)(F)F)=C21` (some centres undefined) [US20250313563, Compound 947363], 100 to 1000 nM.
Still for that read-out and setting: for `CC[C@@]1(c2cccc(-c3ccnc(C)c3)c2)C2=CN=NC2NC2=C1C(=O)C[C@]1(CCOC1)C2` (some centres undefined) [US20250313563, Compound 947407] the value was 1000 to 5000 nM.
Still for that read-out and setting: the figure for `CC[C@]1(c2cccc(-c3ccncc3C)c2)C2=CN=NC2NC2=C1C(=O)NC(C)(C)C2` (some centres undefined) [US20250313563, Compound 947576] is 1000 to 5000 nM; for `CC[C@]1(c2cccc(-c3c(C)cncc3C)c2)C2=CN=NC2NC2=C1C(=O)CC(C)(C)C2` (some centres undefined) [US20250313563, Compound 947658] it is < 100 nM and 100 to 1000 nM.
`CC1(C)CC(=O)C2=C(C1)NC1=C(CN=N1)[C@@]21COC2(CN(C(=O)C3(F)CCC3)C2)C1` [US20250313563, Compound 947736]: the IC50 was in the range of 100 to 1000 nM.
In turn, `CC[C@]1(c2cccc(-c3cc(C)ncc3F)c2)C2=CN=NC2NC2=C1C(=O)NC(C)(C)C2` (some centres undefined) [US20250313563, Compound 947804] had an IC50 of 100 to 1000 nM.
Compound `CC[C@@]1(c2cccc(Oc3ncccn3)c2)C2=CN=NC2NC2=C1C(=O)CC(C)(C)C2` (some centres undefined) [US20250313563, Compound 947808] had an IC50 of 100 to 1000 nM.
Turning to `CC[C@]1(c2cccc(S(=O)(=O)C(C)C)c2)C2=C(CC(C)(C)NC2=O)NC2=C1C(C)N=N2` (some centres undefined) [US20250313563, Compound 947870], the IC50 lay in the range of 100 to 1000 nM.
Regarding `CC[C@@]1(c2cccc(S(=O)(=O)C(C)C)c2)C2=C(CC(C)(C)NC2=O)NC2N=NC(C)=C21` (some centres undefined) [US20250313563, Compound 947876], the IC50 fell in the range of 100 to 1000 nM.
Same read-out and setting: for `CC[C@@]1(c2cccc(-c3ccnn3C)c2)C2=CN=NC2NC2=C1C(=O)N[C@](C)(COC)C2` (some centres undefined) [US20250313563, Compound 947905] the value was 100 to 1000 nM; for `Cc1ccc(C(=O)N2CC3(C2)C[C@]2(CO3)C3=C(N=NC3)NC3=C2C(=O)CC(C)(C)C3)cc1C` [US20250313563, Compound 948038], < 100 nM and 100 to 1000 nM.
The same measure, in the same setting: the figure for `CC[C@@]1(c2cccc(-c3ccncc3Cl)c2)C2=CN=NC2NC2=C1C(=O)NC(C)(C)C2` (some centres undefined) [US20250313563, Compound 948142] is 100 to 1000 nM.
On the same count and under the same terms, for `CC[C@@]1(c2cccc(-c3ccnc(C)c3)c2)C2=CN=NC2NC2=C1C(=O)N[C@]1(CCCOC1)C2` (some centres undefined) [US20250313563, Compound 948152] the value was 100 to 1000 nM.
With `CC[C@@]1(c2cccc(-c3c(Cl)cncc3Cl)c2)C2=CN=NC2NC2=C1C(=O)NC(C)(C)C2` (some centres undefined) [US20250313563, Compound 948515], the IC50 fell in the range of 100 to 1000 nM.
On the same count and under the same terms, for `CC[C@]1(c2cccc(-c3ccnn3C)c2)C2=CN=NC2NC2=C1C(=O)NC1(CCOCC1)C2` (some centres undefined) [US20250313563, Compound 948516] the value was 100 to 1000 nM.
Same read-out and setting: for `CC[C@]1(c2cccc(-c3ccnc(C)c3)c2)C2=CN=NC2NC2=C1C(=O)NC(C)(COC)C2` (some centres undefined) [US20250313563, Compound 948521] the value was 1000 to 5000 nM.
On the same count and under the same terms, the figure for `CC[C@]1(c2cccc(-c3ccncc3C)c2)C2=CN=NC2NC2=C1C(=O)NC1(CCC1)C2` (some centres undefined) [US20250313563, Compound 948523] is 100 to 1000 nM; for `CC[C@]1(c2cccc(-c3c(F)cncc3OC)c2)C2=CN=NC2NC2=C1C(=O)CC(C)(C)[C@H]2F` (some centres undefined) [US20250313563, Compound 948545] it is 100 to 1000 nM.
As for `CC[C@]1(c2cccc(-c3c(F)cncc3OC)c2)C2=CN=NC2NC2=C1C(=O)CC(C)(C)[C@@H]2F` (some centres undefined) [US20250313563, Compound 948546], the IC50 is 100 to 1000 nM.
On the same count and under the same terms, for `CC[C@@]1(c2cccc(-c3c(F)cncc3OC)c2)C2=CN=NC2NC2=C1C(=O)CC(C)(C)[C@@H]2F` (some centres undefined) [US20250313563, Compound 948548] the value was 100 to 1000 nM; for `CC[C@@]1(c2cccc(-c3c(F)cncc3OC)c2)C2=C(N=NC2)NC2=C1C(=O)N(Cc1ccccc1)C2` [US20250313563, Compound 948550], 100 to 1000 nM; for `CC[C@]1(c2cccc(-c3ccnc4c3CCCC4)c2)C2=C(N=NC2)NC2=C1C(=O)N(Cc1ccccc1)C2` [US20250313563, Compound 948551], 100 to 1000 nM.
As to `CCC1(c2cccc(-c3cc(C)nnc3C)c2)C2=C(CC(C)(C)NC2=O)NC2N=NC(C)=C21` (centres undefined) [US20250313563, Compound 948766], the IC50 fell in the range of 100 to 1000 nM.
On the same count and under the same terms, for `CC[C@@]1(c2cccc(-c3cnn(C)c3C#N)c2)C2=CN=NC2NC2=C1C(=O)NC(C)(C)C2` (some centres undefined) [US20250313563, Compound 948827] the value was 100 to 1000 nM; for `CC[C@]1(c2cccc(-c3ccnc(C)c3)c2)C2=CN=NC2NC2=C1C(=O)N(C)C(C)(C)C2` (some centres undefined) [US20250313563, Compound 949004], 100 to 1000 nM; for `CC[C@@]1(c2cccc(-c3cn(C)nc3C)c2)C2=CN=NC2NC2=C1C(=O)N(C)C(C)(C)C2` (some centres undefined) [US20250313563, Compound 949005], 1000 to 5000 nM.
Regarding `CC[C@@]1(c2cccc(-c3cnn(C)c3)c2)C2=C(CC(C)(C)NC2=O)NC2N=NC(F)=C21` (some centres undefined) [US20250313563, Compound 949011], the IC50 was in the range of 100 to 1000 nM.
In the case of `CC[C@]1(c2cccc(C(F)(F)F)c2)C2=CN=NC2NC2=C1C(=O)N(c1cccc(C)c1)CC2` (some centres undefined) [US20250313563, Compound 949040], the IC50 fell in the range of 100 to 1000 nM.
Still for that read-out and setting: the figure for `CC[C@@]1(c2cccc(-c3cnn(C(C)(C)C)c3)c2)C2=CN=NC2NC2=C1C(=O)NC(C)(C)C2` (some centres undefined) [US20250313563, Compound 949112] is 100 to 1000 nM and > 5000 nM.
On the same count and under the same terms, for `CC[C@@]1(c2cccc(C(F)(F)F)c2)C2=C(CCN(c3cnc(OC)nc3)C2=O)NC2N=NC(C)=C21` (some centres undefined) [US20250313563, Compound 949126] the value was 100 to 1000 nM; for `CC[C@]1(c2cccc(C(F)(F)F)c2)C2=CN=NC2NC2=C1C(=O)N(c1ccccc1C)CC2` (some centres undefined) [US20250313563, Compound 949128], 100 to 1000 nM.
Consider `CC[C@@]1(c2cccc(N(C)c3ncccn3)c2)C2=C(CC(C)(C)NC2=O)NC2N=NC(C(F)(F)F)=C21` (some centres undefined) [US20250313563, Compound 949181], for which the IC50 was < 100 nM and 100 to 1000 nM.
Same read-out and setting: for `CC[C@@]1(c2cccc(N3CCCCC3)c2)C2=C(CC(C)(C)NC2=O)NC2N=NC(C(F)(F)F)=C21` (some centres undefined) [US20250313563, Compound 949183] the value was 100 to 1000 nM.
Compound `CC[C@]1(c2cccc(-c3cn(C)nc3C(F)(F)F)c2)C2=CN=NC2NC2=C1C(=O)NC(C)(C)C2` (some centres undefined) [US20250313563, Compound 949266] returned an IC50 of 100 to 1000 nM.
With `CC[C@]1(c2cccc(C(F)(F)F)c2)C2=CN=NC2NC2=C1C(=O)N(c1cnn(C)c1)CC2` (some centres undefined) [US20250313563, Compound 949270], the IC50 lay within 100 to 1000 nM.
In turn, `CC[C@]1(c2cccc(C(F)(F)F)c2)C2=CN=NC2NC2=C1C(=O)N(c1cnc(OC)nc1)[C@H](C)C2` (some centres undefined) [US20250313563, Compound 949351] had an IC50 of 100 to 1000 nM.
Same read-out and setting: the figure for `CC[C@]1(c2cccc(-c3c(C)cnc4ccccc34)c2)C2=C(CC(C)(C)NC2=O)NC2=NN=CC21` (some centres undefined) [US20250313563, Compound 949398] is 100 to 1000 nM; for `CC[C@]1(c2cccc(C(F)(F)F)c2)C2=CN=NC2NC2=C1C(=O)N(c1ccn(C)n1)CC2` (some centres undefined) [US20250313563, Compound 949835] it is 100 to 1000 nM; for `CC[C@@]1(c2cccc(C(F)(F)F)c2)C2=CN=NC2NC2=C1C(=O)C[C@]1(CCNC1=O)C2` (some centres undefined) [US20250313563, Compound 950324] it is 100 to 1000 nM.
The same measure, in the same setting: for `CC[C@@]1(c2cccc(Oc3ncccn3)c2)C2=C(CC(C)(C)CC2=O)NC2N=NC(C(F)(F)F)=C21` (some centres undefined) [US20250313563, Compound 951604] the value was 100 to 1000 nM.
`CC1(C)CC(=O)C2=C(C1)NC1=C(CN=N1)[C@]21CCN(S(=O)(=O)c2ccccc2)C1` [US20250313563, Compound 951787] yielded an IC50 of 100 to 1000 nM.
Still for that read-out and setting: for `CC[C@@]1(c2cccc(-c3cnn(Cc4ccc(C(F)(F)F)cc4)c3)c2)C2=CN=NC2NC2=C1C(=O)NC(C)(C)C2` (some centres undefined) [US20250313563, Compound 951849] the value was 100 to 1000 nM.
Take `CC[C@@]1(c2cccc(C(F)F)c2)C2=C(CC(C)(C)NC2=O)NC2N=NC(C(F)(F)F)=C21` (some centres undefined) [US20250313563, Compound 951948]: the IC50 lay within 100 to 1000 nM.
Consider `CC[C@@]1(c2cccc(-c3cnn(CC#N)c3)c2)C2=CN=NC2NC2=C1C(=O)NC(C)(C)C2` (some centres undefined) [US20250313563, Compound 952210], for which the IC50 is 100 to 1000 nM.

A further experiment has as its target Glycogen synthase kinase-3 alpha (Homo sapiens, UniProt P49840). In words: TR-FRET Assay. Here is the method:
as §1
With `CC(C)(C)CC1=C2C(N=N1)NC1=C(C(=O)CC(C)(C)C1)C21COC1` (centres undefined) [US20250313563, Compound 90709], the IC50 was 1790 nM and 13700 nM.
On the same count and under the same terms, for `CC(=O)N1CC2(C1)C1=C(CC(C)(C)CC1=O)NC1N=NC(CC(C)(C)C)=C12` (centres undefined) [US20250313563, Compound 90991] the value was 3010 nM and 17500 nM.
Turning to `CC(C)(C)CC1N=NC2=C1[C@](C)(c1cccc(S(C)(=O)=O)c1)C1=C(CC(C)(C)CC1=O)N2` (some centres undefined) [US20250313563, Compound 114687], the IC50 lay within 100 to 1000 nM.
With `Cc1ccc(S(C)(=O)=O)cc1[C@]1(C)C2=C(CC(C)(C)CC2=O)NC2=C1C(CC(C)(C)C)N=N2` (some centres undefined) [US20250313563, Compound 126397], the IC50 is 1000 to 5000 nM.
Still for that read-out and setting: for `CC[C@@]1(c2cccc(Br)c2)C2=CN=NC2NC2=C1C(=O)CC(C)(C)C2` (some centres undefined) [US20250313563, Compound 790734] the value was 100 to 1000 nM.
Same read-out and setting: the figure for `CC[C@@]1(c2cccc(Cl)c2)C2=C(CC(C)(C)CC2=O)NC2N=NC(C(F)(F)F)=C21` (some centres undefined) [US20250313563, Compound 801309] is 1000 to 5000 nM.

For the origin of these results see BindingDB's records for patent US20250313563 (The Broad Institute, 2025).
